Columns and labels:
Format in all cases: cell-based
[1] = test system: Bacillus megaterium; experiment: Growth in liquid medium (96-well microplate, absorbance 600 nm), tested solution as only carbon source
Description: (§1) The effect of the addition of algae extracts to a […] culture medium on the growth kinetics of seven bacterial species with a recognized PGPR (Plant-Growth Promoting Rhizobacteria) effect was determined: Bacillus megaterium, Bacillus subtilis, Rhizobium leguminosarum, Azotobacter vinelandii, Pseudomonas fluorescens, Pseudomonas fulva, Arthrobacter agilis.
(§2) Nutrient broth NB culture medium (Sigma-Aldrich) at 25 g/L was used for the multiplication of the following bacteria: Bacillus subtilis, Bacillus megaterium, Arthrobacter agilis, Pseudomonas fluorescens, Pseudomonas fulva. YMA medium (Sigma-Aldrich) without agar was used for Rhizobium leguminosarum bacteria.
(§3) Tests in sterile 96-well round-bottom microplates were performed. An absorbance of 0.06 to 0.08 (600 nm) for inoculation of the bacteria into the microplate was used in these tests.
(§4) Microplate plating included a blank, a positive control, a negative control and the samples.
(§5) The positive control was composed of bacteria and optimum culture medium (nutrient broth NB), in order to verify good multiplication of the bacteria in the microplates.
(§6) The negative control consisted of sterilized distilled water devoid of carbonaceous elements with 20 μl of bacteria inoculated with their NB culture medium, in order to determine how bacterial growth behaved in a medium depleted of any carbonaceous elements.
(§7) The blank was distilled water without bacteria in order to determine possible variations in absorbance and potential bacterial contamination.
(§8) The different algal extract tests consisted of sterile distilled water with the tested solutions at different concentrations (66 μl) to which 20 μl of bacteria were added.
(§9) The different seaweed extracts tested are: commercial mannitol, commercial laminarans, composition according to the invention (laminarans extract).

[2] = test system: Pseudomonas fluorescens; experiment: as above
Description: as §1, §2, §3, §4, §5, §6, §7, §8, §9

[3] = test system: Pseudomonas fulva; experiment: as above
Description: as §1, §2, §3, §4, §5, §6, §7, §8, §9

[4] = test system: bacterial species with a recognized PGPR (Plant-Growth Promoting Rhizobacteria) effect; experiment: Growth in liquid medium (96-well microplate), bacteria not specified
Description: as §1, §2, §3, §4, §5, §6, §7, §8, §9
FIGS. 1 to 3 show a growth of bacterial strains in liquid medium using only the generated extract as carbon source for different bacteria.

Compound	interaction between bacteria and compound (growth curve versus negative and positive control) ([1]; concentration 0.3%)	interaction between bacteria and compound (growth curve versus negative and positive control) ([1]; concentration 0.5%)	interaction between bacteria and compound (growth curve versus negative and positive control) ([1]; concentration 1%)	interaction between bacteria and compound (growth curve versus negative and positive control) ([2]; concentration 0.3%)	interaction between bacteria and compound (growth curve versus negative and positive control) ([2]; concentration 0.5%)	interaction between bacteria and compound (growth curve versus negative and positive control) ([2]; concentration 1%)	interaction between bacteria and compound (growth curve versus negative and positive control) ([3]; concentration 0.3%)	interaction between bacteria and compound (growth curve versus negative and positive control) ([3]; concentration 0.5%)	interaction between bacteria and compound (growth curve versus negative and positive control) ([3]; concentration 1%)	concentration of maximum effect on bacterial growth ([4]; sole source of carbon)	effect on bacterial growth ([4]; sole source of carbon, higher concentrations (2%))	effect on bacterial growth ([4]; sole source of carbon, lower concentrations (0.1%))	effect on bacterial growth ([4]; concentration not given)	effect on bacterial growth ([4]; concentrations in the range of <0.01%)	effect on bacterial growth ([4]; especially when the concentration was above 0.1%)	concentration from which it can be used as a carbon source (increase in bacterial growth) ([4]; used alone)	dependence of the effect on bacterial growth on concentration ([4]; used alone as carbon source)
OC[C@@H](O)[C@@H](O)[C@H](O)[C@H](O)CO [purified mannitol, mannitol]	absence of interaction between bacteria and compounds	absence of interaction between bacteria and compounds	positive interaction between bacteria and compounds	absence of interaction between bacteria and compounds	absence of interaction between bacteria and compounds	positive interaction between bacteria and compounds	absence of interaction between bacteria and compounds	absence of interaction between bacteria and compounds	positive interaction between bacteria and compounds	1%	very little or no effect	very little or no effect	–	–	–	–	–
Alginates	–	–	–	–	–	–	–	–	–	–	–	–	little effect	–	–	–	–
Fucoidans	–	–	–	–	–	–	–	–	–	–	–	–	–	a small improvement in growth	did not seem to show any real positive effect	–	–
laminaran [standard laminaran]	absence of interaction between bacteria and compounds	absence of interaction between bacteria and compounds	positive interaction between bacteria and compounds	absence of interaction between bacteria and compounds	absence of interaction between bacteria and compounds	positive interaction between bacteria and compounds	absence of interaction between bacteria and compounds	absence of interaction between bacteria and compounds	positive interaction between bacteria and compounds	–	–	–	–	–	–	about 1%	the higher the concentration, the greater the effect
